Values of other authors, collected in patent US8778989B2, “Cosmetic composition comprising a lipid fraction from vegetable source and anticrystaling agent” (Natura Cosmeticos S.A., priority 2004, dated 2014).
Where two headings read alike, the source gives them in different places.

| Relative Velocity of Oxidation of Fatty Acids (T = 20° C.) | Relative Velocity of Oxidation of Fatty Acids (T = 37° C.) | Relative Velocity of Oxidation of Fatty Acids (T = 100° C.) | oxidation rate relative to oleic acid (as fast as oleic acid) [times] | SMILES |
| --- | --- | --- | --- | --- |
| 48 | 42 | 64 | 15 | CCCCC/C=C\C/C=C\CCCCCCCC(=O)O [Linoleic, 9,12-linoleic acid] |
| 4 |  | 6 |  | CCCCCCCC/C=C\CCCCCCCC(=O)O [Oleic, oleic acid] |
|  |  | 0.6 |  | CCCCCCCCCCCCCCCCCC(=O)O [Stearic] |
